The subject of the assay is CD2F1 mice, L1210 leukemia ip, survival T/C. Kind of assay: NCI In Vivo Anticancer Drug Screen. Data for tumor model L1210 Leukemia (intraperitoneal) in CD2F1 (CDF1) mice. Conditions: higher = longer survival. The gist of the method:
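Antitumor effect is scored in animals hosting a serially transplanted tumor. Values compare compound-dosed animals against vehicle-only controls as a simple quotient.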

[1] abbreviates: endpoint: mean survival time, dose: 50.0 mg/kg/injection, schedule: Q01DX009 (ip), vehicle: saline with Tween-80.
Where [2] appears, read: endpoint: mean survival time, dose: 100.0 mg/kg/injection, schedule: Q01DX009 (ip), vehicle: saline with Tween-80.
Where [3] appears, read: endpoint: mean survival time, dose: 100.0 mg/kg/injection, schedule: Q04DX003 (ip), vehicle: saline with Tween-80.
Where [4] appears, read: endpoint: mean survival time, dose: 200.0 mg/kg/injection, schedule: Q01DX009 (ip), vehicle: saline with Tween-80.
Where [5] appears, read: endpoint: mean survival time, dose: 200.0 mg/kg/injection, schedule: Q04DX003 (ip), vehicle: saline with Tween-80.
Setting [6] is: endpoint: mean survival time, dose: 100.0 mg/kg/injection, schedule: Q01DX001 (ip), vehicle: saline with Tween-80.
The mark [7] stands for this setting: endpoint: mean survival time, dose: 200.0 mg/kg/injection, schedule: Q01DX001 (ip), vehicle: saline with Tween-80.
The mark [8] stands for this setting: endpoint: mean survival time, dose: 400.0 mg/kg/injection, schedule: Q04DX003 (ip), vehicle: saline with Tween-80.
The mark [9] stands for this setting: endpoint: mean survival time, dose: 100.0 mg/kg/injection, schedule: Q04DX003 (ip), vehicle: saline.
The mark [10] stands for this setting: endpoint: mean survival time, dose: 200.0 mg/kg/injection, schedule: Q04DX003 (ip), vehicle: saline.
Setting [11] is: endpoint: mean survival time, dose: 100.0 mg/kg/injection, schedule: Q01DX001 (ip), vehicle: saline.
Setting [12] is: endpoint: mean survival time, dose: 200.0 mg/kg/injection, schedule: Q01DX001 (ip), vehicle: saline.
Setting [13] is: endpoint: mean survival time, dose: 400.0 mg/kg/injection, schedule: Q01DX001 (ip), vehicle: saline.
[14] abbreviates: endpoint: mean survival time, dose: 100.0 mg/kg/injection, schedule: Q04DX003 (ip), vehicle: Klucel (hydroxypropylcellulose) (HPC).
Where [15] appears, read: endpoint: mean survival time, dose: 200.0 mg/kg/injection, schedule: Q04DX002 (ip), vehicle: saline with Tween-80.

Several values for one entry are separate records, joined by “and”; a condition that tells them apart may be missing. Equal entries are not always repeated. Toxic doses and inconclusive results are not listed.

As for `COc1ccc2nc3cc(Cl)ccc3c(Nc3cccc(NC(C)=O)c3)c2n1`, the T/C is 102 % of control (endpoint: mean survival time, dose: 25.0 mg/kg/injection, schedule: Q01DX009 (ip), vehicle: other); 96 % of control (endpoint: mean survival time, dose: 50.0 mg/kg/injection, schedule: Q01DX009 (ip), vehicle: other); 86 % of control (endpoint: mean survival time, dose: 100.0 mg/kg/injection, schedule: Q01DX009 (ip), vehicle: other).
As to `CCCCCCN(CCCCCC)CC(O)c1cccc2c1cc(Cl)c1ccccc12` (configuration not stated), the T/C is 96 % of control under setting [1]; 100 % of control under setting [2]; 95 % of control under setting [3]; 98 % of control under setting [4]; 101 % of control under setting [5].
For the compound `Nc1cn[nH]c(=O)c1`, the T/C (endpoint: mean survival time, dose: 100.0 mg/kg/injection, schedule: Q01DX001 (ip), vehicle: carboxymethylcellulose (CMC)) was 102 % of control; the T/C (endpoint: mean survival time, dose: 200.0 mg/kg/injection, schedule: Q01DX001 (ip), vehicle: carboxymethylcellulose (CMC)) is 100 % of control; the T/C (endpoint: mean survival time, dose: 400.0 mg/kg/injection, schedule: Q01DX001 (ip), vehicle: carboxymethylcellulose (CMC)) was 92 % of control.
For the compound `CC(C)C1C=C2CCC3C(C)(C(=O)O)CCCC3(C)C2CC1` (configuration not stated), the T/C is, setting by setting: under setting [6], 96 % of control; under setting [7], 94 % of control; (endpoint: mean survival time, dose: 400.0 mg/kg/injection, schedule: Q01DX001 (ip), vehicle: saline with Tween-80) 92 % of control.
Consider `OC(Cc1cnc2ccccc2n1)(C(F)(F)F)C(F)(F)F`, for which the T/C is 94 % of control under setting [3], 98 % of control under setting [5] and 103 % of control under setting [8].
In the case of `CCOC(=O)/C=C/SCCCN`, the T/C is 98 % of control under setting [9] and 96 % of control under setting [10].
`CN(C)c1ccc(Nc2c3ccccc3nc3ccccc23)cc1`: the T/C runs as follows: (endpoint: mean survival time, dose: 120.0 mg/kg/injection, schedule: Q03HX040 (oral), vehicle: saline) 154 % of control; (endpoint: mean survival time, dose: 150.0 mg/kg/injection, schedule: Q03HX008 (oral), vehicle: saline) 124 % of control; (endpoint: mean survival time, dose: 300.0 mg/kg/injection, schedule: Q03HX016 (oral), vehicle: saline) 152 % of control; (endpoint: median survival time, dose: 22.5 mg/kg/injection, schedule: Q01DX009 (ip), vehicle: saline) 111 % of control; (endpoint: median survival time, dose: 45.0 mg/kg/injection, schedule: Q01DX009 (ip), vehicle: saline) 161 % of control and 185 % of control; (endpoint: median survival time, dose: 90.0 mg/kg/injection, schedule: Q01DX009 (ip), vehicle: saline) 188 % of control and 207 % of control.
In the case of `COC(=O)CCN(c1ccccc1)S(=O)(=O)c1ccc(C)cc1`, the T/C was 98 % of control (endpoint: mean survival time, dose: 100.0 mg/kg/injection, schedule: Q01DX009 (ip), vehicle: Klucel (hydroxypropylcellulose) (HPC)); 100 % of control (endpoint: mean survival time, dose: 200.0 mg/kg/injection, schedule: Q01DX009 (ip), vehicle: Klucel (hydroxypropylcellulose) (HPC)); 98 % of control (endpoint: mean survival time, dose: 400.0 mg/kg/injection, schedule: Q01DX009 (ip), vehicle: Klucel (hydroxypropylcellulose) (HPC)).
As for `CN1CCCN(C)C1c1ccccc1`, the T/C was 97 % of control (endpoint: mean survival time, dose: 25.0 mg/kg/injection, schedule: Q01DX009 (ip), vehicle: saline); 94 % of control (endpoint: mean survival time, dose: 50.0 mg/kg/injection, schedule: Q01DX009 (ip), vehicle: saline); 89 % of control (endpoint: mean survival time, dose: 100.0 mg/kg/injection, schedule: Q01DX009 (ip), vehicle: saline); 104 % of control under setting [9].
For `COc1ccc(OC)c(NC(=O)Nc2ccc(C)c([N+](=O)[O-])c2)c1`, the T/C runs as follows: under setting [1], 98 % of control; under setting [2], 94 % of control; under setting [4], 94 % of control.
As for `O=C1C(Br)C2CCC1C2C(=O)O` (configuration not stated), the T/C by setting is: under setting [3], 101 % of control; under setting [5], 98 % of control; under setting [8], 98 % of control.
As to `CCOC(=O)C(C)CN(CC(C)C(=O)OCC)C(C)(C)C` (configuration not stated), the T/C under setting [6] was 112 % of control and the T/C under setting [7] is 100 % of control.
On to `COc1ccc2c(c1)CCc1cn[nH]c1-2`, for which the T/C is, setting by setting: under setting [11], 101 % of control; under setting [9], 106 % of control; under setting [12], 103 % of control; under setting [10], 106 % of control; under setting [13], 98 % of control; (endpoint: mean survival time, dose: 400.0 mg/kg/injection, schedule: Q04DX003 (ip), vehicle: saline) 100 % of control.
Turning to `CCOC1(C)CCC/C(=N/Nc2ccc([N+](=O)[O-])cc2[N+](=O)[O-])C1` (configuration not stated), the T/C under setting [14] was 97 % of control; the T/C (endpoint: mean survival time, dose: 200.0 mg/kg/injection, schedule: Q04DX003 (ip), vehicle: Klucel (hydroxypropylcellulose) (HPC)) was 100 % of control; the T/C (endpoint: mean survival time, dose: 400.0 mg/kg/injection, schedule: Q04DX003 (ip), vehicle: Klucel (hydroxypropylcellulose) (HPC)) is 100 % of control.
`CC(C)(c1ccccn1)C(C)(C)c1ccccn1`: the T/C is 96 % of control under setting [1], 104 % of control under setting [2] and 100 % of control under setting [4].
On to `Cc1cn(C2CC(O)C(COC(=O)Nc3cccc4ccccc34)O2)c(=O)[nH]c1=O` (configuration not stated), for which the T/C reads like this: (endpoint: mean survival time, dose: 12.5 mg/kg/injection, schedule: Q01DX005 (ip), vehicle: other) 100 % of control; (endpoint: mean survival time, dose: 25.0 mg/kg/injection, schedule: Q01DX005 (ip), vehicle: other) 100 % of control; (endpoint: mean survival time, dose: 50.0 mg/kg/injection, schedule: Q01DX005 (ip), vehicle: other) 90 % of control; (endpoint: mean survival time, dose: 100.0 mg/kg/injection, schedule: Q01DX005 (ip), vehicle: other) 94 % of control; (endpoint: mean survival time, dose: 200.0 mg/kg/injection, schedule: Q01DX005 (ip), vehicle: other) 94 % of control.
Turning to `CC1NCCOC1c1ccccc1` (configuration not stated), the T/C is, setting by setting: under setting [9], 100 % of control; under setting [10], 102 % of control.
As for `CCCCCCCCC(O)C(O)CCCCCCCC(=O)O` (configuration not stated), the T/C (endpoint: mean survival time, dose: 100.0 mg/kg/injection, schedule: Q04DX003 (ip), vehicle: other) is 93 % of control; the T/C (endpoint: mean survival time, dose: 200.0 mg/kg/injection, schedule: Q04DX003 (ip), vehicle: other) is 98 % of control; the T/C (endpoint: mean survival time, dose: 400.0 mg/kg/injection, schedule: Q04DX003 (ip), vehicle: other) is 95 % of control.
As for `CC(C)(C)N=C1OC(=O)c2ccccc21`, the T/C is, setting by setting: under setting [3], 101 % of control; under setting [5], 101 % of control; under setting [8], 101 % of control.
Take `OCC1(OC2OC(CBr)C(O)C(O)C2O)OC(CBr)C(O)C1O` (configuration not stated): the T/C by setting is: under setting [1], 98 % of control; under setting [2], 91 % of control; under setting [4], 95 % of control.
As to `CC(C)S(=O)(=O)/C(Cl)=C(/Cl)C(Cl)=C(Cl)Cl`, under setting [1], the T/C is 106 % of control.
Regarding `O=S(=O)(c1cc(Cl)ccc1O)c1cc(Cl)ccc1O`, the T/C was 103 % of control under setting [11], 100 % of control under setting [12] and 100 % of control under setting [13].
As for `CC(=O)NCC1(c2ccccc2)CCN(CCCC(=O)c2ccc(F)cc2)CC1`, the T/C reads like this: (endpoint: mean survival time, dose: 25.0 mg/kg/injection, schedule: Q04DX003 (ip), vehicle: Klucel (hydroxypropylcellulose) (HPC)) 95 % of control; (endpoint: mean survival time, dose: 50.0 mg/kg/injection, schedule: Q04DX003 (ip), vehicle: Klucel (hydroxypropylcellulose) (HPC)) 100 % of control; under setting [14], 95 % of control.
Regarding `Oc1ccccc1C=NC1CCCCC1N=Cc1ccccc1O.[Cu]` (configuration not stated), the T/C was 88 % of control (endpoint: mean survival time, dose: 100.0 mg/kg/injection, schedule: Q04DX002 (ip), vehicle: saline with Tween-80); 88 % of control under setting [15]; 91 % of control (endpoint: mean survival time, dose: 400.0 mg/kg/injection, schedule: Q04DX002 (ip), vehicle: saline with Tween-80).
With `O=C(Oc1ccc(=O)[nH]n1)c1ccccc1`, the T/C is, setting by setting: (endpoint: mean survival time, dose: 12.5 mg/kg/injection, schedule: Q04DX002 (ip), vehicle: saline with Tween-80) 98 % of control; (endpoint: mean survival time, dose: 25.0 mg/kg/injection, schedule: Q04DX002 (ip), vehicle: saline with Tween-80) 94 % of control; (endpoint: mean survival time, dose: 50.0 mg/kg/injection, schedule: Q04DX002 (ip), vehicle: saline with Tween-80) 90 % of control and 94 % of control; under setting [15], 87 % of control.

The values above are taken from PubChem BioAssay AID256 (DTP/NCI, 2004).
